Reference: US11814367B2, “Inhibitors of glycogen synthase 1 (GYS1) and methods of use thereof” (Maze Therapeutics, Inc., priority 2021, dated 2023)

Assays:
[1] = target: hGYS1 enzyme (recombinant hGYS1/GN1 protein) (Homo sapiens (Human), UniProt P13807); assay: GYS1 coupled enzyme assay (PK/LDH); type: biochemical; details: hGYS1/GN1 50 nM, UDP-Glucose 0.8 mM, G6P 1 mM; geometric mean of at least 2 runs
[2] = test system: hGYS1 enzyme / glycogen synthesis in HeLa cells; assay: GYS1 cell based assay (glycogen synthesis, Glucose-glo); parameters: species or system human; details: Homo sapiens, HeLa, 24 h, 24 h incubation, 20 mM glucose, geometric mean of at least 2 runs
Procedure, shortened: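 HeLa cells starved 24 h in medium containing only 1× Glutamax were plated onto compound in medium with 20 mM glucose (1% DMSO final) for 24 h, 37 °C, 5% CO2. Acid lysates were Tris-quenched, glucoamylase-digested (pH 5.3, 1 h, 37 °C) and read by Glucose-glo luminescence. IC50 came from Hill fits, as geometric mean of ≥2 runs.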

[3] = target: hGYS2 enzyme (recombinant hGYS2/GN1 protein) (Homo sapiens (Human), UniProt P54840); assay: GYS2 coupled enzyme assay (PK/LDH); type: biochemical; details: geometric mean of at least 2 assay runs on separate days, read-out: Avg_IC50
Chain of hGYS2 enzyme (recombinant hGYS2/GN1 protein) (P54840 whole entry): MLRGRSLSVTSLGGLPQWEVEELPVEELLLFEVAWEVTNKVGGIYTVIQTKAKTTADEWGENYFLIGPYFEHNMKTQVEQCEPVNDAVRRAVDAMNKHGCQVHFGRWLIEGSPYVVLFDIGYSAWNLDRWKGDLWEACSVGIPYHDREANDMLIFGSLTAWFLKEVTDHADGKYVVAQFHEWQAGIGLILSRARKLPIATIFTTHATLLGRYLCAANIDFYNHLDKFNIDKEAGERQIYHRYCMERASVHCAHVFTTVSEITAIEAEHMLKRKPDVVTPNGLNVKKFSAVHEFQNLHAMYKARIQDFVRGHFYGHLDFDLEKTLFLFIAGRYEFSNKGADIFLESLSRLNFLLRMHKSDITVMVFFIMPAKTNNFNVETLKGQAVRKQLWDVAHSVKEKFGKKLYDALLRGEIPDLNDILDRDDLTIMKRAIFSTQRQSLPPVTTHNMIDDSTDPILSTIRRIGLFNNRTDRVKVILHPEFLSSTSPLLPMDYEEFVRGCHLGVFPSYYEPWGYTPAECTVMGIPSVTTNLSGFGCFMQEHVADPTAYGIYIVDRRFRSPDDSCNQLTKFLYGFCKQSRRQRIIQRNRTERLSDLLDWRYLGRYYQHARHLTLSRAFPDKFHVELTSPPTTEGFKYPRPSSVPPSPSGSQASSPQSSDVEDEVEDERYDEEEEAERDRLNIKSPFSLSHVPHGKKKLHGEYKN
Chain of hGYS2 enzyme (recombinant hGYS2/GN1 protein) (P46976 whole entry partner): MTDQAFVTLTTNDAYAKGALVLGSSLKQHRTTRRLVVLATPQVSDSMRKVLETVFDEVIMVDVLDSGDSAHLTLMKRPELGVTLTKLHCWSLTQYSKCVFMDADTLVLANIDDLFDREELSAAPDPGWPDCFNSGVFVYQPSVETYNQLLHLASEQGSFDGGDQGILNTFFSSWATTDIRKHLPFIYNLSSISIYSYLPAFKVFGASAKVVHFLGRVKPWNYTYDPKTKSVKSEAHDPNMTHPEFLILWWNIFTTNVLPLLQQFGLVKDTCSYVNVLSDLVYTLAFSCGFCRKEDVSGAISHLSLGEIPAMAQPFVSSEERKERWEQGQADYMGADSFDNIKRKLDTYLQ
Procedure, shortened: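 Read-out: NADH loss at 340 nm, read each minute for 10 min, slope normalized to controls, duplicate % inhibition fit to Hill (0–100). Enzyme: 200 nM hGYS2/GN1; substrate 2 mM UDP-glucose plus 0.2% glycogen and 2 mM G6P; pH 7.5 Tris, 2.5% DMSO.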

Chain of hGYS1 enzyme (recombinant hGYS1/GN1 protein) (P13807 whole entry): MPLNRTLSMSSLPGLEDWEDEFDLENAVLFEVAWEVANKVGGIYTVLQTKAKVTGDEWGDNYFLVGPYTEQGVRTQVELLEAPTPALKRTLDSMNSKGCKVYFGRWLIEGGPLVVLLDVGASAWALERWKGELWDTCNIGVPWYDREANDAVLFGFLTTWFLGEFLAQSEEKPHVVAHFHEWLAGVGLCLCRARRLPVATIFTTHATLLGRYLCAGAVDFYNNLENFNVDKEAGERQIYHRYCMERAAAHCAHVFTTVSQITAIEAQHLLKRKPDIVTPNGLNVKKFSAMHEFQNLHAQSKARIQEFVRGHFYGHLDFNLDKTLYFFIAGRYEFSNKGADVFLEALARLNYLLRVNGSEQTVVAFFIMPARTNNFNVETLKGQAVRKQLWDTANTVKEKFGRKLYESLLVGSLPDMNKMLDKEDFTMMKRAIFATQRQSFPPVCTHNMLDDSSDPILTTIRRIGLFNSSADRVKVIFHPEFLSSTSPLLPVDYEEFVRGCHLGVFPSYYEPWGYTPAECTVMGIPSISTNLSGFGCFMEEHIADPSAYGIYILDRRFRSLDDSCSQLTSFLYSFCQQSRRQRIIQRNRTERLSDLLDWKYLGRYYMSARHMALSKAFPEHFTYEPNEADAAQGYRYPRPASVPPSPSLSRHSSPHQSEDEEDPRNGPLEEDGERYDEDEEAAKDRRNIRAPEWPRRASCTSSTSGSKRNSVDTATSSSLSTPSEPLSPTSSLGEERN
Chain of hGYS1 enzyme (recombinant hGYS1/GN1 protein) (P46976 whole entry partner): as the sequence (P46976 whole entry partner) above

| IC50 [1] [nM] | IC50 [2] [nM] | IC50 [3] [nM] | SMILES |
| --- | --- | --- | --- |
| 168 | 2130 | > 100000 | CC(C)c1cnc(C(NC(=O)[C@@H]2C[C@@H](F)CN2C(=O)Cc2cnn[nH]2)c2ccccc2)cc1F (single isomer, unassigned) [Compound 605, (2S,4R)-4-fluoro-N-[(S) or (R)-[4-fluoro-5-(propan-2-yl)pyridin-2-yl] (phenyl)methyl]-1-[2-(1H-1,2,3-triazol-5-yl)acetyl]pyrrolidine-2-carboxamide] |
| 91 | 1430 | > 100000 | Cc1cn(CC(=O)N2C[C@H](F)C[C@H]2C(=O)N[C@@H](c2ccccc2)c2ccc(C3CC3)c(F)c2)cn1 [Compound 468, (2S,4R)-N-[(S)-(4-cyclopropyl-3-fluorophenyl)(phenyl)methyl]-4-fluoro-1-[2-(4-methyl-1H-imidazol-1-yl)acetyl]pyrrolidine-2-carboxamide] |
| 71 | 1330 | > 100000 | O=C(N[C@@H](c1ccccc1)c1ccc(C2CC2)c(F)c1)[C@@H]1C[C@@H](F)CN1C(=O)Cc1n[nH]c2ccccc12 [Compound 458, (2S,4R)-N-[(S)-(4-cyclopropyl-3-fluorophenyl)(phenyl)methyl]-4-fluoro-1-[2-(1H-indazol-3-yl)acetyl]pyrrolidine-2-carboxamide] |
| 8 | 350 | > 100000 | Cc1cnc(CC(=O)N2C[C@H](F)C[C@H]2C(=O)N[C@@H](c2ccccc2)c2ccc(C(C)C)c(F)n2)o1 [Compound 408, (2S,4R)-4-fluoro-N-[(S)-[6-fluoro-5-(propan-2-yl)pyridin-2-yl](phenyl)methyl]-1-[2-(5-methyl-1,3-oxazol-2-yl)acetyl] pyrrolidine-2-carboxamide] |
| 8 | 710 | > 100000 | O=C(N[C@@H](c1ccccc1)c1ccc(C2CC(F)(F)C2)c(F)n1)[C@@H]1C[C@@H](F)CN1C(=O)Cc1ccc(=O)[nH]c1 [Compound 516, (2S,4R)-N-[(S)-[5-(3,3-difluorocyclobutyl)-6-fluoropyridin-2-yl](phenyl)methyl]-4-fluoro-1-[2-(6-oxo-1,6-dihydropyridin-3-yl)acetyl]pyrrolidine-2-carboxamide] |
| 18 | 310 | > 100000 | CC(C)c1ccc([C@@H](NC(=O)[C@@H]2C[C@@H](F)CN2C(=O)CN2CC(=O)N(C)CC2=O)c2ccccc2)cc1F [Compound 339, (2S,4R)-4-fluoro-N-[(S)-[3-fluoro-4-(propan-2-yl)phenyl](phenyl)methyl]-1-[2-(4-methyl-2,5-dioxopiperazin-1-yl)acetyl]pyrrolidine-2-carboxamide] |
| 21 | 220 | > 100000 | CC(C)c1ccc([C@@H](NC(=O)[C@@H]2C[C@@H](F)CN2C(=O)Cc2ccc3ncccc3c2)c2ccccc2)cc1F [Compound 357, (2S,4R)-4-fluoro-N-[(S)-[3-fluoro-4-(propan-2-yl)phenyl](phenyl)methyl]-1-[2-(quinolin-6-yl)acetyl]pyrrolidine-2-carboxamide] |
| 2550 | 23400 | > 100000 | CC1(c2ccc([C@H](NC(=O)[C@@H]3C[C@@H](F)CN3C(=O)Cc3n[nH]c4ccccc34)c3ccccc3)nc2F)CC1 [Compound 590, (2S,4R)-4-fluoro-N-[(R)-[6-fluoro-5-(1-methylcyclopropyl)pyridin-2-yl](phenyl)methyl]-1-[2-(1H-indazol-3-yl)acetyl]pyrrolidine-2-carboxamide] |
| 8 | 220 | > 100000 | CCn1cc(CC(=O)N2C[C@H](F)C[C@H]2C(=O)N[C@@H](c2ccccc2)c2ccc(C3CC(F)(F)C3)c(F)n2)ccc1=O [Compound 519, (2S,4R)-N-[(S)-[5-(3,3-difluorocyclobutyl)-6-fluoropyridin-2-yl](phenyl)methyl]-1-[2-(1-ethyl-6-oxo-1,6-dihydropyridin-3-yl)acetyl]-4-fluoropyrrolidine-2-carboxamide] |
| 17 | 910 | > 100000 | O=C(N[C@@H](c1ccccc1)c1ccc(C2CC2)c(F)n1)[C@@H]1C[C@@H](F)CN1C(=O)Cn1ccc(=O)[nH]c1=O [Compound 727, (2S,4R)-N-[(S)-(5-cyclopropyl-6-fluoropyridin-2-yl)(phenyl)methyl]-1-[2-(2,4-dioxo-1,2,3,4-tetrahydropyrimidin-1-yl)acetyl]-4-fluoropyrrolidine-2-carboxamide] |
| 7 | 240 | > 100000 | Cc1ccc2c(CC(=O)N3C[C@H](F)C[C@H]3C(=O)N[C@@H](c3ccccc3)c3ccc(C(C)C)cn3)cccc2n1 [Compound 257, (2S,4R)-4-fluoro-1-[2-(2-methylquinolin-5-yl)acetyl]-N-[(S)-phenyl[5-(propan-2-yl)pyridin-2-yl]methyl]pyrrolidine-2-carboxamide] |
| 3 | 50 | > 100000 | CCn1c(=O)c(C)cn(CC(=O)N2C[C@H](F)C[C@H]2C(=O)N[C@@H](c2ccccc2)c2ccc(C3CC(F)(F)C3)c(F)n2)c1=O [Compound 501, (2S,4R)—N—((S)-(5-(3,3-difluorocyclobutyl)-6-fluoropyridin-2-yl)(phenyl)methyl)-1-(2-(3-ethyl-5-methyl-2,4-dioxo-3,4-dihydropyrimidin-1(2H)-yl)acetyl)-4-fluoropyrrolidine-2-carboxamide] |

The next lines start with the compound.

| SMILES | IC50 [1] [nM] | IC50 [2] [nM] | IC50 [3] [nM] |
| --- | --- | --- | --- |
| O=C1Nc2ccccc2C1CC(=O)N1C[C@H](F)C[C@H]1C(=O)N[C@@H](c1ccccc1)c1ccc(C2CC2)c(F)c1 (stereo partly drawn) [Compound 467, (2S,4R)-N-[(S)-(4-cyclopropyl-3-fluorophenyl)(phenyl)methyl]-4-fluoro-1-[2-(2-oxo-2,3-dihydro-1H-indol-3-yl)acetyl]pyrrolidine-2-carboxamide] | 324 | 4810 | > 100000 |
| CC(C)c1ccc([C@@H](NC(=O)[C@@H]2C[C@@H](F)CN2C(=O)Cn2cccn2)c2ccccc2)nc1F [Compound 781, (2S,4R)-4-fluoro-N-[(S)-[6-fluoro-5-(propan-2-yl)pyridin-2-yl](phenyl)methyl]-1-[2-(1H-pyrazol-1-yl)acetyl]pyrrolidine-2-carboxamide] | 11 | 270 | > 100000 |
| O=C(N[C@@H](c1ccccc1)c1ccc(C2CC(F)(F)C2)cn1)[C@@H]1C[C@@H](F)CN1C(=O)Cc1[nH]nnc1C(F)(F)F [Compound 542, (2S,4R)-N-[(S)-[5-(3,3-difluorocyclobutyl)pyridin-2-yl] (phenyl)methyl]-4-fluoro-1-{2-[4-(trifluoromethyl)-1H-1,2,3-triazol-5-yl]acetyl} pyrrolidine-2-carboxamide] | 11 | 1480 | > 100000 |
| O=C(N[C@@H](c1ccccc1)c1ccc(C2CC2)c(F)c1)[C@@H]1C[C@@H](F)CN1C(=O)Cn1cnnc1 [Compound 481, (2S,4R)-N-[(S)-(4-cyclopropyl-3-fluorophenyl)(phenyl)methyl]-4-fluoro-1-[2-(4H-1,2,4-triazol-4-yl)acetyl]pyrrolidine-2-carboxamide] | 247 | 7770 | > 100000 |
| O=C(N[C@@H](c1ccccc1)c1ccc(C2CC(F)(F)C2)c(F)c1)[C@@H]1C[C@@H](F)CN1C(=O)Cn1cnc2ccccc21 [Compound 549, (2S,4R)-1-[2-(1H-1,3-benzodiazol-1-yl)acetyl]-N-[(S)-[4-(3,3-difluorocyclobutyl)-3-fluorophenyl](phenyl)methyl]-4-fluoropyrrolidine-2-carboxamide] | 6 | 120 | > 100000 |
| CN(C)c1cnnn1CC(=O)N1C[C@H](F)C[C@H]1C(=O)N[C@@H](c1ccccc1)c1ccc(C2CC2)c(F)n1 [Compound 298, (2S,4R)-N-[(S)-(5-cyclopropyl-6-fluoropyridin-2-yl)(phenyl)methyl]-1-{2-[5-(dimethylamino)-1H-1,2,3-triazol-1-yl]acetyl}-4-fluoropyrrolidine-2-carboxamide] | 12 | 260 | > 100000 |
| CC(=O)NCc1cnnn1CC(=O)N1C[C@H](F)C[C@H]1C(=O)N[C@@H](c1ccccc1)c1ccc(C(C)C)cc1 [Compound 243, (2S,4R)-1-{2-[5-(acetamidomethyl)-1H-1,2,3-triazol-1-yl]acetyl}-4-fluoro-N-[(S)-phenyl[4-(propan-2-yl)phenyl]methyl]pyrrolidine-2-carboxamide] | 86 | 2250 | > 100000 |
| CC(C)c1ccc([C@@H](NC(=O)[C@@H]2C[C@@H](F)CN2C(=O)Cc2cccnn2)c2ccccc2)cc1F [Compound 343] | 27 | 460 | > 100000 |
| Cc1ccnn1CC(=O)N1C[C@H](F)C[C@H]1C(=O)N[C@@H](c1ccccc1)c1ccc(C2CC2)c(F)n1 [Compound 724, (2S,4R)-N-[(S)-(5-cyclopropyl-6-fluoropyridin-2-yl)(phenyl)methyl]-4-fluoro-1-[2-(5-methyl-1H-pyrazol-1-yl)acetyl]pyrrolidine-2-carboxamide] | 34 | 630 | > 100000 |
